# Measurements reported in article PMC9961271, “Inhibitory Effects of a Novel μ-Opioid Receptor Nonpeptide Antagonist, UD-030, on Morphine-Induced Conditioned Place Preference” (International Journal of Molecular Sciences, 2023).
# Counter-ions that a name gives are not always drawn.
# Key:
# human MOP [1] = target: T1, human MOP (Homo sapiens, UniProt P35372); assay: [35S]-GTPγS binding assay, hMOP/CHO membranes; type: biochemical
# C57BL/6J mice [2] = assay: Acquisition of morphine-induced conditioned place preference; type: in vivo, male C57BL/6J mice; conditions: for time spent in the drug-paired compartment, preconditioning / time spent in the drug-paired compartment, postconditioning: n = 8; for morphine-induced CPP score compared with the vehicle-pretreated group: Dunnett's test
# Experimental: (§1) For the pharmacokinetic and pharmacological studies, morphine hydrochloride (Takeda Pharma, Osaka, Japan) was dissolved and diluted in saline and administered intraperitoneally (i.p.) in a volume of 10 mL/kg body weight. […] All experiments were conducted with a dose of morphine (10 mg/kg) that is sufficient to elicit CPP.
# (§2) Male Crl:CD1 (ICR) mice (Japan CLEA, Tokyo, Japan) were used at 5 weeks of age for the pharmacokinetic analysis. Male C57BL/6J mice (Japan CLEA) were used at 7 weeks of age for the behavioral analyses. The mice were housed 4–6 per cage in an environment at 23 °C ± 1 °C and 50% ± 5% humidity with free access to food and water under a 12 h/12 h light/dark cycle. All experiments were performed with approval from the Institutional Animal Care and Use Committee at the Tokyo Metropolitan Institute of Medical Science.
# (§3) The CPP test was performed using a two-compartment Plexiglas chamber. […] For the preconditioning and postconditioning phases, a T-style division with double 60 mm × 60 mm openings allowed the mice to access both compartments. During the conditioning phases, the openings were eliminated to restrict the mice to one of the compartments. The CPP apparatus was placed in a sound-attenuated, light-controlled box. On day 1 (preconditioning: habituation) and day 2 (preconditioning: pretest), the mice freely explored the two compartments for 900 s, and the time spent in each compartment during the exploratory period and locomotor activity were measured using an infrared detector (Neuroscience, Osaka, Japan). We selected a counterbalanced protocol to nullify each mouse’s initial preference as discussed previously. […] Conditioning was conducted once daily for 4 consecutive days (days 3–6). The mice were injected with morphine (10.0 mg/kg, i.p.) or saline and immediately confined to the black or white compartment for 60 min on day 3. On day 4, the mice were alternately injected with saline or drug and immediately confined to the opposite compartment for 60 min. On days 5 and 6, the same conditioning as on days 3 and 4 was repeated. The assignment of the mice to the conditioned compartment was performed randomly and counterbalanced across subjects. During the postconditioning phase on day 7, the time spent in each compartment was measured for 900 s. The CPP score was designated as the time spent in the drug-paired compartment on day 7 minus the time spent in the same compartment in the preconditioning phase on day 2.
# (§4) The data were analyzed using two-way repeated-measures ANOVA followed by Sidak’s multiple-comparison post hoc test, one-way ANOVA followed by Dunnett’s multiple-comparison post hoc test, or Student’s t-test using GraphPad Prism software. Values of p < 0.05 were considered statistically significant.
# C57BL/6J mice [3] = assay: Expression of morphine-induced conditioned place preference; type: in vivo, male C57BL/6J mice; conditions: for time spent in the morphine-paired compartment, preconditioning / time spent in the morphine-paired compartment, postconditioning: n = 8; for morphine-induced CPP score compared with the vehicle-treated control group: 10 mg/kg p.o. before the postconditioning phase, Dunnett's test, UD-030 p = 0.038, NTX p = 0.042; for sedative effects (number of transitions between compartments): 10 mg/kg p.o., postconditioning phase
# Experimental: as §1, §2, §3, §4
# human MOP [4] = target: T1, human MOP; assay: Competitive radioligand binding assay, hMOP/CHO membranes
# human DOP [5] = target: T2, human DOP (Homo sapiens, UniProt P41143); assay: Competitive radioligand binding assay, hDOP/CHO membranes
# human KOP [6] = target: T3, human KOP (Homo sapiens, UniProt P41145); assay: Competitive radioligand binding assay, hKOP/CHO membranes
# human NOP [7] = target: T4, human NOP (Homo sapiens, UniProt P41146); assay: Competitive radioligand binding assay, hNOP/CHO membranes
# human DOP [8] = target: T2, human DOP; assay: [35S]-GTPγS binding assay, hDOP/CHO membranes; type: biochemical
# human KOP [9] = target: T3, human KOP; assay: [35S]-GTPγS binding assay, hKOP/CHO membranes; type: biochemical
# human NOP [10] = target: T4, human NOP; assay: [35S]-GTPγS binding assay, hNOP/CHO membranes; type: biochemical
# [11] = Pharmacokinetics after a single oral administration (plasma, LC-MS/MS); conditions: male, Crl:CD1 (ICR), mouse; for concentration at 0.5 h / concentration at 1 h / concentration at 2 h / concentration at 4 h / concentration at 8 h / concentration at 24 h: in vivo; for AUC(0-t) / Cmax / Tmax: plasma; for Tmax: mice
# [12] = 10 mg/kg p.o. 60 min before each morphine treatment (10 mg/kg, i.p.)
# [13] = 10 mg/kg p.o. before each morphine treatment, UD-030 p < 0.001, NTX p = 0.003
# [14] = 10 mg/kg p.o. 60 min before the postconditioning phase
# [15] = 3 mg/kg p.o. 60 min before each morphine treatment (10 mg/kg, i.p.)
smiles,measurement,setting,value
"C[C@@H](NC(=O)[C@@H](N)Cc1ccc(O)cc1)C(=O)NCC(=O)N(C)[C@@H](Cc1ccccc1)C(=O)NCCO [DAMGO, reference compound]",Emax,"human MOP [1]; hMOP/CHO, read-out: maximal effect (agonistic activity)",> 95%
"CN1CC[C@]23c4c5ccc(O)c4O[C@H]2[C@@H](O)C=C[C@H]3[C@H]1C5 [Morphine, morphine hydrochloride]","time spent in the drug-paired compartment, preconditioning","C57BL/6J mice [2]; morphine 10 mg/kg i.p. conditioning, vehicle-pretreated control mice",443.1 ± 33.2 s
same,"time spent in the drug-paired compartment, postconditioning","C57BL/6J mice [2]; morphine 10 mg/kg i.p. conditioning, vehicle-pretreated control mice, p < 0.001 vs pre",554.4 ± 31.8 s
same,"time spent in the morphine-paired compartment, preconditioning","C57BL/6J mice [3]; morphine 10 mg/kg i.p. conditioning, vehicle-treated control mice",443.6 ± 34.4 s
same,"time spent in the morphine-paired compartment, postconditioning","C57BL/6J mice [3]; morphine 10 mg/kg i.p. conditioning, vehicle-treated control mice, p < 0.001 vs pre",554.4 ± 29.7 s
"O=C1CC[C@@]2(O)[C@H]3Cc4ccc(O)c5c4[C@@]2(CCN3CC2CC2)[C@H]1O5 [NTX, naltrexone, reference compound]","time spent in the drug-paired compartment, postconditioning",C57BL/6J mice [2]; [12],436.5 ± 49.7 s
same,"time spent in the drug-paired compartment, preconditioning",C57BL/6J mice [2]; [12],437.0 ± 38.1 s
same,morphine-induced CPP score compared with the vehicle-pretreated group,C57BL/6J mice [2]; [13],significantly lower
same,"time spent in the morphine-paired compartment, postconditioning",C57BL/6J mice [3]; [14],474.1 ± 29.9 s
same,"time spent in the morphine-paired compartment, preconditioning",C57BL/6J mice [3]; [14],441.6 ± 33.0 s
same,morphine-induced CPP score compared with the vehicle-treated control group,C57BL/6J mice [3],significantly decreased
same,sedative effects (number of transitions between compartments),C57BL/6J mice [3],did not exert sedative effects
CC[C@]1(c2cc(NS(=O)(=O)C3CC3)ccc2F)[C@@H]2CN(CC3(O)Cc4ccccc4C3)C[C@@H]21 [UD-030],Ki,human MOP [4],3.1 nM
same,Ki,human DOP [5],1800 nM
same,Ki,human KOP [6],460 nM
same,Ki,human NOP [7],1800 nM
same,EC50,human MOP [1],> 10000 nM
same,IC50,human MOP [1],1.7 nM
same,maximal inhibitory effect,human MOP [1]; against DAMGO,> 95%
same,stimulation of [35S]-GTPγS binding,human MOP [1]; high concentration (10 µM),did not stimulate
same,EC50,human DOP [8],> 10000 nM
same,IC50,human DOP [8],850 nM
same,maximal inhibitory effect,human DOP [8]; against DPDPE,> 95%
same,stimulation of [35S]-GTPγS binding,human DOP [8]; high concentration (10 µM),did not stimulate
same,EC50,human KOP [9],> 10000 nM
same,IC50,human KOP [9],85 nM
same,maximal inhibitory effect,human KOP [9]; against U-69593,> 95%
same,stimulation of [35S]-GTPγS binding,human KOP [9]; high concentration (10 µM),did not stimulate
same,EC50,human NOP [10],> 10000 nM
same,IC50,human NOP [10],330 nM
same,maximal inhibitory effect,human NOP [10]; against nociceptin,> 95%
same,stimulation of [35S]-GTPγS binding,human NOP [10]; high concentration (10 µM),did not stimulate
same,"time spent in the drug-paired compartment, postconditioning",C57BL/6J mice [2]; [15],470.6 ± 16.5 s
same,"time spent in the drug-paired compartment, preconditioning",C57BL/6J mice [2]; [15],445.2 ± 18.9 s
same,morphine-induced CPP score compared with the vehicle-pretreated group,"C57BL/6J mice [2]; 3 mg/kg p.o. before each morphine treatment, p = 0.023",significantly lower
same,"time spent in the drug-paired compartment, postconditioning",C57BL/6J mice [2]; [12],392.8 ± 42.3 s
same,"time spent in the drug-paired compartment, preconditioning",C57BL/6J mice [2]; [12],434.9 ± 30.5 s
same,morphine-induced CPP score compared with the vehicle-pretreated group,C57BL/6J mice [2]; [13],significantly lower
same,"time spent in the morphine-paired compartment, preconditioning",C57BL/6J mice [3]; 3 mg/kg p.o. 60 min before the postconditioning phase,466.8 ± 20.7 s
same,"time spent in the morphine-paired compartment, postconditioning","C57BL/6J mice [3]; 3 mg/kg p.o. 60 min before the postconditioning phase, p = 0.012 vs pre",536.5 ± 24.8 s
same,"time spent in the morphine-paired compartment, postconditioning",C57BL/6J mice [3]; [14],492.4 ± 32.8 s
same,"time spent in the morphine-paired compartment, preconditioning",C57BL/6J mice [3]; [14],461.3 ± 20.0 s
same,morphine-induced CPP score compared with the vehicle-treated control group,C57BL/6J mice [3],significantly decreased
same,sedative effects (number of transitions between compartments),C57BL/6J mice [3],did not exert sedative effects
same,behavioral abnormalities during the session,"C57BL/6J mice [3]; high-dose (10 mg/kg, p.o.)",No other notable behavioral abnormalities
same,concentration at 0.5 h,[11]; 0.5 mg/kg,1.09 ± 0.4 ng/mL
same,concentration at 1 h,[11]; 0.5 mg/kg,2.86 ± 1.6 ng/mL
same,concentration at 2 h,[11]; 0.5 mg/kg,2.96 ± 0.3 ng/mL
same,concentration at 4 h,[11]; 0.5 mg/kg,4.61 ± 1.9 ng/mL
same,concentration at 8 h,[11]; 0.5 mg/kg,4.95 ± 0.9 ng/mL
same,concentration at 24 h,[11]; 0.5 mg/kg,0.231 ng/mL
same,concentration at 0.5 h,[11]; 1 mg/kg,4.76 ± 1.9 ng/mL
same,concentration at 1 h,[11]; 1 mg/kg,6.98 ± 1.7 ng/mL
same,concentration at 2 h,[11]; 1 mg/kg,14.9 ± 0.9 ng/mL
same,concentration at 4 h,[11]; 1 mg/kg,11.5 ± 2.9 ng/mL
same,concentration at 8 h,[11]; 1 mg/kg,10.9 ± 2.1 ng/mL
same,concentration at 24 h,[11]; 1 mg/kg,0.358 ng/mL
same,concentration at 0.5 h,[11]; 2 mg/kg,11.8 ± 5.4 ng/mL
same,concentration at 1 h,[11]; 2 mg/kg,25.5 ± 2.2 ng/mL
same,concentration at 2 h,[11]; 2 mg/kg,36.1 ± 8.3 ng/mL
same,concentration at 4 h,[11]; 2 mg/kg,26.7 ± 3.3 ng/mL
same,concentration at 8 h,[11]; 2 mg/kg,18.8 ± 9.2 ng/mL
same,concentration at 24 h,[11]; 2 mg/kg,0.35 ng/mL
same,concentration at 0.5 h,[11]; 4 mg/kg,27.7 ± 24 ng/mL
same,concentration at 1 h,[11]; 4 mg/kg,119 ± 35 ng/mL
same,concentration at 2 h,[11]; 4 mg/kg,72.7 ± 18 ng/mL
same,concentration at 4 h,[11]; 4 mg/kg,103 ± 15 ng/mL
same,concentration at 8 h,[11]; 4 mg/kg,69.4 ± 10 ng/mL
same,concentration at 24 h,[11]; 4 mg/kg,0.395 ± 0.1 ng/mL
same,AUC(0-t),[11]; 0.5 mg/kg,72.3 ng·h/mL
same,Cmax,[11]; 0.5 mg/kg,4.95 ng/mL
same,Tmax,"[11]; 0.5 mg/kg, Tmax, 0.5 mg/kg p.o.",8 h
same,AUC(0-t),[11]; 1 mg/kg,176 ng·h/mL
same,Cmax,[11]; 1 mg/kg,14.9 ng/mL
same,Tmax,"[11]; 1 mg/kg, Tmax, 1 mg/kg p.o.",2 h
same,AUC(0-t),[11]; 2 mg/kg,350 ng·h/mL
same,Cmax,[11]; 2 mg/kg,36.1 ng/mL
same,Tmax,"[11]; 2 mg/kg, Tmax, 2 mg/kg p.o.",2 h
same,AUC(0-t),[11]; 4 mg/kg,1220 ng·h/mL
same,Cmax,[11]; 4 mg/kg,119 ng/mL
same,Tmax,"[11]; 4 mg/kg, Tmax, 4 mg/kg p.o.",1 h
same,Tmax,"[11]; 4 mg/kg, time to reach the maximum plasma concentration (Tmax), over the doses 0.5, 1, 2 and 4 mg/kg p.o.",1 to 8 h
